The numbers were not newly measured in patent publication US8148574B2, “Method for producing 5-aminolevulinic acid hydrochloride” (Cosmo Oil Co., Ltd., priority 2005, dated 2012), which cites them from elsewhere.

As a reminder, the solubility is the concentration that dissolves in the medium under given conditions.

For this data set the following is noted: in water, at room temperature; depends on pH, temperature and coexisting solute.

Consider `Cl.NCC(=O)CCC(=O)O` [5-aminolevulinic acid hydrochloride], for which the solubility was ≥ 3000 mM.
